Results from US12195558B2, “Targeted delivery system and methods of use therefor” (SANFORD BURNHAM PREBYS MEDICAL DISCOVERY INSTITUTE, priority 2015, dated 2025).
Bridge positions count the residues as written; N and C are the ends. Ends that are not written are not given here.

Legend:
p32 [1] = target: T1, p32 (Homo sapiens, UniProt Q07021); test: Binding of peptide-displaying T7 phage to p32-coated magnetic beads; conditions: phage-displayed peptide; relative to LyP-1
T1 construct: made in house; host or cells: E. coli Rosetta-gami-2 (Novagen)
T1 sequence (Q07021 74-282): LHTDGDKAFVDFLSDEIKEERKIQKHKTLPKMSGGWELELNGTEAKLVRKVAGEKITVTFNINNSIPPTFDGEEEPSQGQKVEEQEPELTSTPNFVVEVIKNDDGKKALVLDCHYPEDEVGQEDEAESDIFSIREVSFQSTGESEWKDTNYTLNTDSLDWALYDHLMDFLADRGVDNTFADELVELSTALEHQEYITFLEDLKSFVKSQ
Method: FIG. 10 is a bar graph showing that the p32 binding of the RGXR(S/T) motif (SEQ ID NOs: 4 and 5) in the exemplary TT1 peptide (SEQ ID NO: 3) was not dependent on the cyclic structure and compatible with flanking sequences. Phage clones displaying the indicated peptides were incubated in p32-coated magnetic microbeads. After washing to remove non-bound phage, specifically bound phage were quantified.
Milligram quantities of recombinant His-tagged p32 protein were expressed in E. coli and coated onto Ni-NTA magnetic beads, and biopanning was performed using two T7 bacteriophage peptide libraries (cyclic Cx7C and linear X7 library).
(§1) Variant peptide-encoding genomic DNA of phage was sequenced and analyzed for the presence of consensus motifs. After two rounds of selection, both linear and cyclic libraries converged to contain an RGXRS (SEQ ID NO: 4) pentapeptide motif (see FIG. 2B). The binding of RGXRS (SEQ ID NO: 4)-displaying phage to p32 was specific, as these phage bound to magnetic beads coated with p32 protein and not to beads coated with ligand-binding b1b2 domain of the cell and tissue penetration receptor NRP-1 or BSA (see FIG. 3).
(§2) An exemplary RGXRS (SEQ ID NO: 4) pentapeptide motif-containing peptide with the sequence CKRGARSTC (SEQ ID NO: 3) was designated as the […] and used it for further studies. Mutating any amino acid in the consensus motif of TT1 abolished the phage binding to p32. This new peptide conferred about 15-fold stronger phage binding to immobilized p32 protein than did the canonical LyP-1 peptide.

[2] = system: orthotopic 4T1 breast tumors; test: In vivo homing of intravenous FAM-labeled peptide, 4T1 tumors; design: species or system mice; conditions: 4T1 syngeneic tumors, 200 μg FAM-labeled peptide i.v., 2 hours
Method: (§3) FIGS. 7A and 7B are photographs depicting in vivo homing of an exemplary TT1 peptide. 200 μg of FAM-labeled TT1 (SEQ ID NO: 3) peptide or control peptide in PBS was intravenously injected to mice bearing orthotopic 4T1 (FIG. 7A) or MCF7 (FIG. 7B) breast tumors. The peptides were allowed to circulate for 2 hours and organs were collected and photographed under white (top panels) or UV (bottom panels) light. Arrows point to the tumors of TT1 (SEQ ID NO: 3)-injected mice. Note robust signal (white in black and white versions and green in color versions of the Figures) indicating homing of TT1 (SEQ ID NO: 3) peptide to the tumor in both models. H: heart; Lu: lung; Li: liver; Ki: kidney; Sp: spleen; T: tumor.

[3] = system: MCF10 breast cancer cells; test: In vitro binding and internalization of FAM-labeled peptide in MCF10 cells; type: cell-based; conditions: 100 μM FAM-labeled peptide, 1 hour at 37° C.
Method: (§4) FIGS. 6A and 6B are fluorescence micrographs showing internalization of CKRGARSTC (TT1; SEQ ID NO: 3) peptide in breast tumor cells in vitro. 100 μM FAM-labeled peptides were incubated with 4T1 (FIG. 6A) or MCF10 (FIG. 6B) breast cancer cells for 1 hour at 37° C. in DMEM high glucose/10% serum medium. Cells were washed, fixed, stained with anti-FITC antibody, and MITOTRACKER® (Life Technologies) or phalloidin as indicated. Scale bars: 20 μm.
(§5) The ability of the TT1 Peptide to bind to cultured breast tumor cells was tested in vitro.

p32 [4] = target: T1, p32; test: Fluorescence polarization assay with synthetic peptides on p32; type: binding; conditions: for binding to p32 in fluorescence polarization assay (in words): synthetic peptides
Source text: (§6) FIGS. 4A and 4B are plots showing a comparison of the binding of LyP-1 (SEQ ID NO: 7; diamonds) and TT1 (SEQ ID NO: 3; squares) to p32 in a fluorescence polarization assay. […] NRP-1 was used as a control protein.
FIG. 5 is a plot showing that P32-TT1 (CKRGARSTC; SEQ ID NO: 3) and LyP-1 (SEQ ID NO: 7) peptides competed for binding to the P32 protein. […] Squares: p32-TT1; Diamonds: LyP-1; X: RPARPAR peptide (SEQ ID NO: 14).
as §2

NRP-1 b1b2 domain = target: T2, NRP-1 b1b2 domain (Homo sapiens, UniProt O14786); test: Binding of peptide-displaying T7 phage to NRP-1 b1b2-coated magnetic beads; conditions: 30 minutes at 37° C., p32 versus NRP-1 b1b2 beads
T2 sequence (O14786 273-586 limits assumed): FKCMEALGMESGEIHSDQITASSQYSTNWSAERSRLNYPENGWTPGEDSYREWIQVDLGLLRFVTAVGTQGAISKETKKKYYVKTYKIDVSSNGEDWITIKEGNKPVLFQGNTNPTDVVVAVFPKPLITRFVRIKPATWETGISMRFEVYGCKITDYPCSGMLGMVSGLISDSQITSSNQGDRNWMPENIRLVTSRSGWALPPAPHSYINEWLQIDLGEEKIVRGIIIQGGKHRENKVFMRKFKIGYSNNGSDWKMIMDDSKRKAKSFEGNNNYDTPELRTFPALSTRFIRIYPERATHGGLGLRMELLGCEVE
Method: FIG. 9 is a bar graph showing proteolytic switching of binding specificity of an exemplary TT1 peptide (SEQ ID NO: 3). T7 phage displaying an exemplary TT1 peptide (SEQ ID NO: 3) were exposed to increasing concentrations of crystalline trypsin and incubated for 30 minutes at 37° C. After treatment, phage were incubated with magnetic beads coated with either p32 (decending hatching left to right) or NRP-1 b1b2 (ascending hatching left to right) protein, followed by washes to remove unbound phage and quantitation of specifically bound phage.
as §1
The p32 binding motif with consensus sequence RGXRS (SEQ ID NO: 4; i.e., the RGXRS (SEQ ID NO: 4) pentapeptide motif) contains a cryptic RGXR CendR element that can be unmasked by a tryptic cleavage. […]

MDA-MB-231 xenografts = test: In vivo homing of intravenous peptide, MDA-MB-231 xenografts; design: species or system mice; conditions: i.v.
4T1 breast cancer cells = test: In vitro binding and internalization of FAM-labeled peptide in 4T1 cells; type: cell-based; conditions: 100 μM FAM-labeled peptide, 1 hour at 37° C.
Method: as §4, §5

[5] = system: orthotopic MCF7 breast tumors; test: In vivo homing of intravenous FAM-labeled peptide, MCF7 tumors; design: species or system mice; conditions: 200 μg FAM-labeled peptide i.v., 2 hours
Method: as §3

atherosclerotic plaques = test: Homing to atherosclerotic plaques in ApoE null mice on high-fat diet; type: in vivo; conditions: for homing to and penetration into plaque tissue: 100 mg FAM labeled peptide i.v., one hour
Method: ApoE null mice that had been kept on a high-fat diet were intravenously injected with […] of the FAM labeled peptides. One hour later, the mice were perfused through the heart under anesthesia, and tissues were collected. The panels show accumulation of FAM labeled peptides visualized with UV excitation. The center two and right two panels show atherosclerotic aortas that were sectioned at the aortic root level and examined by confocal microscopy.

[6] = Aggregation of peptide-coated nanoparticles; type: physicochemical; conditions: peptide on nanoparticles
Source text: The linear TT1 Peptide was selected for further study as a D[KLAKLAK]2 (SEQ ID NO: 42) conjugate on NWs. The CGKRK (SEQ ID NO: 6) and LyP-1 Peptides were included for comparison.

NRP-1 = NRP-1 (Homo sapiens, UniProt O14786); test: Fluorescence polarization assay on NRP-1 (control protein); type: binding; conditions: NRP-1 as control protein
Source text: as §6

Chain of NRP-1 (O14786 22-923): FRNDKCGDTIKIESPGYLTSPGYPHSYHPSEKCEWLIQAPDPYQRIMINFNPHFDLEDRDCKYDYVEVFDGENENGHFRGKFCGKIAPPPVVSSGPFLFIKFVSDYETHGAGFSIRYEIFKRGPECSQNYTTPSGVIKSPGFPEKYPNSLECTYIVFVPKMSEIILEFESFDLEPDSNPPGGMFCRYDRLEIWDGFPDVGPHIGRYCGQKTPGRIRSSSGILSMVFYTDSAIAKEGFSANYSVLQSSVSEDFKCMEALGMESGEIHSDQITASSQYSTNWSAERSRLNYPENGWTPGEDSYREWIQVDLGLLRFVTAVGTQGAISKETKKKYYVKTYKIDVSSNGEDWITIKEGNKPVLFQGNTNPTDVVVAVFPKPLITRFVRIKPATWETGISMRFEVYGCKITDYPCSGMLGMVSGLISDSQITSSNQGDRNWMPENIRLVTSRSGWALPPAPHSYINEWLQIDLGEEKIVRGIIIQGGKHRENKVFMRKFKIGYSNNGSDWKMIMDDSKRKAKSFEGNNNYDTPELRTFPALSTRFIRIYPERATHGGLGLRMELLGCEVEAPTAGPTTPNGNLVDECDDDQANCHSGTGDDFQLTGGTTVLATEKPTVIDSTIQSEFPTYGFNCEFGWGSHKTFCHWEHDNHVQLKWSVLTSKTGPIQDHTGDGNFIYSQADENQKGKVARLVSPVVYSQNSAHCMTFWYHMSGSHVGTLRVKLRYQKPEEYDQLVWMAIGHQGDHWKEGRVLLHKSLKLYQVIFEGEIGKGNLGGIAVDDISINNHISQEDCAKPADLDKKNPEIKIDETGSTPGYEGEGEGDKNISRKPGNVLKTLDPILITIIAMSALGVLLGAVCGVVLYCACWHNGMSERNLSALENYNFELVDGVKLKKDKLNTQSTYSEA

CKRGARSTC (disulfide 1-9 (inferred)) [TT1 Peptide]
phage binding to immobilized p32 protein, fold stronger than the canonical LyP-1 peptide (p32 [1]): about 15 fold | tumor homing [2]: homed to breast tumors | tumor homing ([2]; listed as TT1): robust signal | cell surface binding and internalization [3]: rapidly bound to the surface of 4T1 and MCF10 breast cancer cells and was internalized over time | inhibition of binding of labeled TT1 to P32 by unlabeled peptide (p32 [4]; competition, fluorescence polarization): could be inhibited | binding site on p32 (p32 [4]; fluorescence polarization): shared the binding site on p32 with the LyP-1 peptide | affinity for p32 (in words) (p32 [4]; method not stated at the place): high affinity for p32 | binding to p32 in fluorescence polarization assay (in words) (p32 [4]): specific | binding to p32 in fluorescence polarization assay (in words) (p32 [4]; listed as TT1): bound to p32 with a higher affinity than LyP-1 | binding specificity after exposure to trypsin (NRP-1 b1b2 domain): affinity switching from p32 to NRP-1 b1b2 | tumor homing (MDA-MB-231 xenografts): homed to breast tumors | cell surface binding and internalization (4T1 breast cancer cells): rapidly bound to the surface of 4T1 and MCF10 breast cancer cells and was internalized over time | tumor homing [5]: homed to breast tumors | tumor homing ([5]; listed as TT1): robust signal | homing to and penetration into plaque tissue (atherosclerotic plaques): homed to and penetrated atherosclerotic lesions | homing to and penetration into plaque tissue (atherosclerotic plaques; listed as TT1): homed to and penetrated into plaque tissue as well as or better than LyP-1 | plaque homing compared with LyP-1 peptide (atherosclerotic plaques; ApoE null mice on high-fat diet): more robust than seen with the LyP-1 peptide | aggregation of the peptide-coated nanoparticles [6]: tended to cause aggregation of the peptide-coated nanoparticles | binding to NRP-1 in fluorescence polarization assay (in words) (NRP-1): only background binding
